The nature of data set [1]: Hydroxyl (HO•) free radical scavenging assay (competition with DMSO). From the text:
The hydroxyl (HO^•) free radical is considered as the most toxic and reactive radical among the ROS, leading to cellular or protein damage, membrane destruction, and even to cellular death when encountered in excess concentration. In this context, the evaluation of the hydroxyl radical scavenging activity of the coumarin analogues was essential. Hydroxyl radicals are mainly produced by the Haber–Weiss reaction in the presence of iron or copper ions. In this protocol, iron-EDTA solution, which catalyzes the autooxidation of ascorbic acid, was used as the hydroxyl radical generation system. In general, the hydroxyl radicals formed oxidize the DMSO to form formaldehyde. The reaction involves the initial interaction of DMSO with the hydroxyl radicals to give methyl radicals, with the final product being formaldehyde, which is determined by Nash method. The intensity of the yellow solution formed was measured at 412 nm against a reagent blank.
For the evaluation of hydroxyl radical scavenging ability, the protocol described by Kontogiorgis et al. was used. In short, each sample was tested in quadruplicate (A, B, C, D). For A and B, 10 μL of coumarin analogs diluted in DMSO (100 mM) were added; for C and D were the respective blanks. Standards (containing DMSO solution) and blanks were all prepared in a similar manner; to the latter an equal amount (10 µL) of solvent was added instead of the tested analogues. According to the protocol described by Klein et al., standard solutions of EDTA, FeCl3, ascorbic acid, and buffer solution (pH 7.4) were also added to each of the tested mixtures. All mixtures were incubated at 37 °C for 30 min, and then 1 mL of Nash solution and […] of CCl3COOH solution were added. After a 10min incubation at 60 °C to allow the formation of the yellow mixture, the absorbance was measured at […].
The results were calculated as performance percentages in relation to the respective standards and blanks according to the following Equation (4):(4) % Scavenging ability= Mean OD(A+B)−Mean OD(C+D)/Mean OD(A+B)

A short description of data set [2]: Inhibition of AAPH induced linoleic acid oxidation (lipid peroxidation). The source says:
AAPH induced linoleic acid oxidation has been developed as a quick and reliable antioxidant activity assay. It is based on the inhibition of linoleic acid oxidation, initiated by the thermal free radical producer 2,2′-azobis(2-amidinopropane) dihydrochloride (AAPH), providing a measure of how efficiently antioxidants protect against lipid oxidation in vitro. Oxidation of exogenous linoleic acid by AAPH is followed by UV spectrophotometry at 234 nm in a highly diluted sample [38].
For the reference sample in a UV cuvette, 10 μL of the test sample (100 μM diluted in DMSO), 10 μL linoleic acid (LA) (16 mM), and buffer solution (pH 7.4) were added to a final volume of 1ml. For the measurement sample, in a UV cuvette, 10 μL of test sample, 50 μL AAPH (40 mM), 10 μL LA, and buffer solution were added to a final volume of 1 mL. Standard and blank samples were prepared in the same way using DMSO (solvent) instead of the tested coumarin analogues. The absorbance was measured after 2 min at 37 °C at 234 nm. Results were obtained via the following Equation (5):(5) %Inhibition=(Standard−Blank)−(Reference Sample−Measurement Sample)/(Standard−Blank) × 100

A short description of data set [3]: IAM chromatography (IAM.PC.DD.2 column) and estimated human oral absorption. It is filed as in vitro ADME. As to conditions: for %HOA estimated human oral absorption: Equation (1) from logkw and physicochemical properties; for logkw (IAM retention factor): pH 7.40, IAM.PC.DD.2, intercept at pure aqueous phase. As for the experimental part: The immobilized artificial membrane (IAM) chromatographic behavior of the 25 novel coumarin derivatives was studied. IAM stationary phases consisting of monolayers of phospholipids (e.g., phosphatidylcholine, PC) immobilized on a propylamine–silica support can simulate interactions of chemicals with cell membranes.
Using an IAM.PC.DD2 column (Regis Technologies) as the stationary phase with PBS as the mobile phase at pH = 7.40, and a flow rate of 3 mL/min in the presence of acetonitrile fractions (C%) of 10%, 15%, 20%, 25%, and 30%, a logkC% value was obtained via the retention time for each concentration of CH3CN. Retention factors were then used to plot logkC% as a function of acetonitrile fraction. The intercept of the linear regression corresponds to the logkw, corresponding to pure aqueous phase.
(1) % HOA=100/1+10^−(2.17+0.88*logkw−0.006*MW−0.83*A−0.53*F^*++1.18*F^*−)
(§1) The physicochemical and biomimetic properties of the new coumarin analogues were studied using liquid chromatography (HPLC) in 220–230 nm Two types of chromatographic columns were used: (i) immobilized artificial membrane (IAM) ([…].PC.DD.2, Regis Technologies) column and (ii) human serum albumin (HSA) (CHIRAL PAK) column.
(§2) The training set consisted of 25 neutral and slightly acidic compounds. Their IAM retention factors were measured at pH 7.40 on a IAM.PC.DD.2 column. The mobile phase consisted of acetonitrile solvent (CH3CN) in various concentrations (10%, 15%, 20%, 25%, 30%) and a flow rate of 3 mL/min was selected. Their HSA retention factors were measured at pH 7.00 on HSA column. The mobile phase consisted of acetonitrile solvent (CH3CN) in 10% concentration and a flow rate of 1 mL/min was selected.
(§3) The different pH values (7.00 for HSA and 7.40 for IAM) were measured with an electronic pH meter MP125 and were achieved by preparing suitable buffers of phosphates and chlorides (0.12 g KH2PO4, 0.72 g Na2HPO4·2H2O, 4.00 g NaCl and 0.10 g KCl). Sodium citrate solution was used to determine the dead time, which was deducted from the results at the end of measurements. The elution time of each coumarin analogue was measured at least three times. Retention times were converted into logk values, which represent the logarithm of the retention indexes, using Equation (8). (8) logk=log(tr−t0/t0) where tr is the retention time of the coumarin derivative and t0 is the dead time.

Data set [4] deals with T1, human serum albumin (HSA) (Homo sapiens, UniProt P02768).
T1 construct: purchased CHIRAL PAK
T1 sequence (P02768 25-609): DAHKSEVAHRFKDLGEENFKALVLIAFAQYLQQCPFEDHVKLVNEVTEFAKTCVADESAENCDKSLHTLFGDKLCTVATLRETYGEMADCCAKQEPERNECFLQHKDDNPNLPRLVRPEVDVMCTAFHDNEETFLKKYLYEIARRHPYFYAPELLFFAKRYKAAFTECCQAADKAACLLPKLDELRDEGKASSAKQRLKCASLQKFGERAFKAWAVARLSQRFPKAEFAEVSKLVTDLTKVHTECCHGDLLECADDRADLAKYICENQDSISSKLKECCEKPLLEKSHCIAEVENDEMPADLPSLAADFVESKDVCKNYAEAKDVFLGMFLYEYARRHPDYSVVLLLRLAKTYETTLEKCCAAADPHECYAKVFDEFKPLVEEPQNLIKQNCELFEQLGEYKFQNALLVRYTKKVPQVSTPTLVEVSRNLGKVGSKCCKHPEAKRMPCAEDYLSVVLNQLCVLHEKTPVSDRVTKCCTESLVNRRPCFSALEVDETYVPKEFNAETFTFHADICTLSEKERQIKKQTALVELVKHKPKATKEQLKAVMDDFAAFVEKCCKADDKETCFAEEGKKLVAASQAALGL
As to the kind of experiment: HSA chromatography and estimated plasma protein binding. It is filed as in vitro ADME. The conditions noted are these: for fraction unbound: human, immobilized human serum albumin (HSA) column, Equation (2) from logk10, pH 7.00, read-out: %PPB estimated plasma protein binding (converted); for logk10 (HSA retention factor): pH 7.00, 10% acetonitrile. As for the experimental part: The novel coumarin derivatives were also studied using the immobilized protein column HSA. An HSA chromatographic column provides estimates on the binding affinities of chemicals to human serum albumin, which is the most abundant plasma protein and is related to drug efficacy, drug—drug pharmacokinetic interactions, and drug safety. HSA binding can be considered to represent almost the total plasma protein binding of a drug.
Retention factors on the HSA stationary phase were measured using as eluent PBS at pH = 7.00 and a flow rate of 1 mL/min in the presence of 10% acetonitrile.
(2) % PPB=101∗10^logk10/1+10^logk10
as §1, §2, §3

These results are taken from article PMC8512853, “Synthesis, Bioactivity, Pharmacokinetic and Biomimetic Properties of Multi-Substituted Coumarin Derivatives” (Molecules, 2021).

Broadly, the IC50 is the point on the concentration scale where inhibition reaches its midpoint. Read a high IC50 as lower potency. In the case of `CC(=O)Oc1cccc2oc(=O)c(-c3ccccc3Cl)c(C)c12` [Compound 3a, 5-acetyloxy-3-(2-chlorophenyl)-4-methyl-chromen-2-one], the “HO^• % (100 μΜ) scavenging” value in data set [1] was 97.0%. This compound also showed an IC50 in data set [2] of 71.9 µM. In addition, in data set [3], the “%HOA estimated human oral absorption” value is recorded as 100% and the “logkw (IAM retention factor)” value is reported as 3.58. Further, in data set [4], the fraction unbound was 0.202 and the “logk10 (HSA retention factor)” value is 0.57.

Turning to `CC(=O)Oc1cccc2oc(=O)c(-c3cccc(Cl)c3)c(C)c12` [Compound 3b, 5-acetyloxy-3-(3-chlorophenyl)-4-methyl-chromen-2-one], the “HO^• % (100 μΜ) scavenging” value in data set [1] came out at 96.4%. This compound had an IC50 in data set [2] of 91.5 µM. In data set [3], the “%HOA estimated human oral absorption” value was 99.8% and the “logkw (IAM retention factor)” value is recorded as 2.88. Besides, in data set [4], the fraction unbound is 0.128 and the “logk10 (HSA retention factor)” value is 0.80.

For `CC(=O)Oc1cccc2oc(=O)c(-c3ccc(Cl)cc3)c(C)c12` [Compound 3c, 5-acetyloxy-3-(4-chlorophenyl)-4-methyl-chromen-2-one], the “HO^• % (100 μΜ) scavenging” value in data set [1] is given as 30.8%. This compound also showed an IC50 in data set [2] of 75.1 µM. In addition, in data set [3], the “%HOA estimated human oral absorption” value is given as 99.9% and the “logkw (IAM retention factor)” value is reported as 3.05. Moreover, in data set [4], the fraction unbound is 0.091 and the “logk10 (HSA retention factor)” value is 0.96.

For the compound `CC(=O)Oc1cccc2oc(=O)c(-c3ccccc3F)c(C)c12` [Compound 3d, 5-acetyloxy-3-(2-fluorophenyl)-4-methyl-chromen-2-one], in data set [1], the “HO^• % (100 μΜ) scavenging” value was 100%. Besides, in data set [3], the “%HOA estimated human oral absorption” value was 99.7% and the “logkw (IAM retention factor)” value is recorded as 2.56. Besides, in data set [4], the fraction unbound is 0.149 and the “logk10 (HSA retention factor)” value is listed as 0.73.

Take `CC(=O)Oc1cccc2oc(=O)c(-c3cccc(F)c3)c(C)c12` [Compound 3e, 5-acetyloxy-3-(3-fluorophenyl)-4-methyl-chromen-2-one]: the “HO^• % (100 μΜ) scavenging” value in data set [1] was determined as 85.2%. Besides, the “AAPH % inhibition (100 μΜ)” value in data set [2] was “inactive and no”. For the same compound, in data set [3], the “%HOA estimated human oral absorption” value is on record as 99.7% and the “logkw (IAM retention factor)” value was 2.47. Besides, in data set [4], the fraction unbound was 0.149 and the “logk10 (HSA retention factor)” value is 0.73.

Regarding `CC(=O)Oc1cccc2oc(=O)c(-c3ccc(F)cc3)c(C)c12` [Compound 3f, 5-acetyloxy-3-(4-fluorophenyl)-4-methyl-chromen-2-one], the “HO^• % (100 μΜ) scavenging” value in data set [1] came to 71.6%. In data set [3], the “%HOA estimated human oral absorption” value is recorded as 99.7% and the “logkw (IAM retention factor)” value was 2.52. In data set [4], the fraction unbound was 0.206 and the “logk10 (HSA retention factor)” value was 0.57.

As to `CC(=O)Oc1cccc2oc(=O)c(-c3cccc(Br)c3)c(C)c12` [Compound 3g, 5-acetyloxy-3-(3-bromophenyl)-4-methyl-chromen-2-one], the “HO^• % (100 μΜ) scavenging” value in data set [1] is 42.0%. In data set [2], the concentration for half-maximal inhibition (IC50) turned out to be 50.7 µM. Moreover, in data set [3], the “%HOA estimated human oral absorption” value is recorded as 100.0% and the “logkw (IAM retention factor)” value is 4.77. Also, in data set [4], the fraction unbound is 0.12 and the “logk10 (HSA retention factor)” value is on record as 0.83.

For `CC(=O)Oc1ccc(-c2c(C)c3ccccc3oc2=O)cc1` [Compound 3h, 3-(4-acetyloxyphenyl)-4-methyl-chromen-2-one], the “HO^• % (100 μΜ) scavenging” value in data set [1] was 100%. The compound also yielded an IC50 in data set [2] of 70.7 µM. Further, in data set [3], the “%HOA estimated human oral absorption” value was 99.7% and the “logkw (IAM retention factor)” value is given as 2.48. Moreover, in data set [4], the fraction unbound was 0.145 and the “logk10 (HSA retention factor)” value is 0.74.

Take `CC(=O)Oc1ccc(-c2c(C)c3cc(Br)ccc3oc2=O)cc1` [Compound 3i, 3-(4-acetyloxyphenyl)-6-bromo-4-methyl-chromen-2-one]: in data set [1], the “HO^• % (100 μΜ) scavenging” value was 64.5%. In data set [2], this compound had a concentration for half-maximal inhibition (IC50) of 70.7 µM. Also, in data set [3], the “%HOA estimated human oral absorption” value is 99.8% and the “logkw (IAM retention factor)” value is given as 3.28. In data set [4], the fraction unbound is 0.059 and the “logk10 (HSA retention factor)” value is recorded as 1.14.

On to `CC(=O)Oc1ccc(-c2c(C)c3cc(Cl)ccc3oc2=O)cc1` [Compound 3j, 3-(4-acetyloxyphenyl)-6-chloro-4-methyl-chromen-2-one], for which the “HO^• % (100 μΜ) scavenging” value in data set [1] came out at 26.6%. Moreover, the “AAPH % inhibition (100 μΜ)” value in data set [2] is reported as “no”. In data set [3], the “%HOA estimated human oral absorption” value is 99.9% and the “logkw (IAM retention factor)” value was 3.06. In data set [4], the fraction unbound was 0.088 and the “logk10 (HSA retention factor)” value is reported as 0.97.

Turning to `CC(=O)Oc1ccc(-c2c(C)c3cc(Br)cc(Br)c3oc2=O)cc1` [Compound 3k, 3-(4-acetyloxyphenyl)-6,8-dibromo-4-methyl-chromen-2-one], in data set [1], the “HO^• % (100 μΜ) scavenging” value came to 92.9%. The “AAPH % inhibition (100 μΜ)” value in data set [2] is “inactive and no”. In data set [3], the “%HOA estimated human oral absorption” value was 99.9% and the “logkw (IAM retention factor)” value is reported as 3.91. In addition, in data set [4], the fraction unbound is 0.013 and the “logk10 (HSA retention factor)” value is reported as 1.63.

`CC(=O)Oc1ccc(-c2c(C)c3ccccc3oc2=O)cc1OC(C)=O` [Compound 3l, 3-(4,5-diacetyloxyphenyl)-4-methyl-chromen-2-one]: in data set [1], the “HO^• % (100 μΜ) scavenging” value was 10.7%. The same compound registered an IC50 in data set [2] of 85.5 µM. Further, in data set [3], the “%HOA estimated human oral absorption” value was 99.4% and the “logkw (IAM retention factor)” value is reported as 2.43. In addition, in data set [4], the fraction unbound is 0.401 and the “logk10 (HSA retention factor)” value is given as 0.16.

On to `Cc1c(-c2ccc(O)cc2)c(=O)oc2c(Br)cc(Br)cc12` [Compound 4k, 6,8-dibromo-3-(4-hydroxyphenyl)-4-methyl-chromen-2-one], for which the “HO^• % (100 μΜ) scavenging” value in data set [1] is listed as 100%. In addition, the IC50 in data set [2] worked out at 36.9 µM.
